Data reported in patent publication US20110218103A1, “Fluoroalkyl-substituted 2-amidobenzimidazoles” (BAYER CROPSCIENCE AG, priority 2010, published 2011).

Legend:
Test in all cases: Drought stress test on crop plants, spray application in greenhouse, visual damage rating
Assay type in all cases: in vivo
Details in all cases: mean of three results
Brassica napus (BRSNS) = test system: Brassica napus (BRSNS)
Procedure: Seeds of monocotyledonous and dicotyledonous crop plants were placed in sandy loam in wood-fiber pots, covered with soil and cultivated in a greenhouse under good growth conditions. The test plants were treated at the early leaf stage (BBCH10-BBCH13). To ensure uniform water supply before commencement of stress, the potted plants were supplied with the maximum amount of water immediately beforehand by dam irrigation and, after application, transferred in plastic inserts in order to prevent subsequent, excessively rapid drying. The inventive compounds, formulated in the form of wettable powders (WP), wettable granules (WG), suspension concentrates (SC) or emulsion concentrates (EC), were sprayed onto the green parts of the plants as an aqueous suspension at an equivalent water application rate of 600 l/ha with addition of 0.2% wetting agent (agrotin). Substance application was followed immediately by stress treatment of the plants (cold or drought stress). For cold stress treatment, the plants were kept under the following controlled conditions: Drought stress was induced by gradual drying out under the following conditions: “day”: 14 hours with illumination at 26° C. “night”: 10 hours without illumination at 18° C. The duration of the respective stress phases was guided mainly by the state of the untreated, stressed control plants and thus varies from crop to crop. It was ended (by re-irrigating or transfer to a greenhouse with good growth conditions) as soon as irreversible damage is observed on the untreated, stressed control plants. In the case of dicotyledonous crops, for example oilseed rape and soya, the duration of the drought stress phase was between 3 and 5 days, in the case of monocotyledonous crops, for example wheat, barley or corn, between 6 and 10 days. The duration of the cold stress phase varied between 12 and 14 days. The end of the stress phase was followed by an approx. 5-7-day recovery phase, during which the plants were once again kept under good growth conditions in a greenhouse. In order to rule out any influence of the effects observed by any fungicidal action of the test compounds, it was additionally ensured that the tests proceed without fungal infection and without infection pressure. After the recovery phase had ended, the intensities of damage were rated visually compared to untreated, unstressed controls of the same age (in the case of drought stress) or the same growth stage (in the case of cold stress). The intensity of damage was first assessed as a percentage (100%=plants have died, 0%=like control plants). These values were then used to calculate the efficacy of the test compounds (=percentage reduction in the intensity of damage as a result of substance application) by the following formula: [formula] EF: efficacy (%) DVus: damage value of the untreated, stressed control DVts: damage value of the plants treated with test compound The tables below list mean values in each case from three results of the same test. Effects of selected compounds of the formula (I) under drought stress: BRSNS=Brassica napus

[1] = test system: Triticum aestivum (TRZAS)
Procedure: Seeds of monocotyledonous and dicotyledonous crop plants were placed in sandy loam in wood-fiber pots, covered with soil and cultivated in a greenhouse under good growth conditions. The test plants were treated at the early leaf stage (BBCH10-BBCH13). To ensure uniform water supply before commencement of stress, the potted plants were supplied with the maximum amount of water immediately beforehand by dam irrigation and, after application, transferred in plastic inserts in order to prevent subsequent, excessively rapid drying. The inventive compounds, formulated in the form of wettable powders (WP), wettable granules (WG), suspension concentrates (SC) or emulsion concentrates (EC), were sprayed onto the green parts of the plants as an aqueous suspension at an equivalent water application rate of 600 l/ha with addition of 0.2% wetting agent (agrotin). Substance application was followed immediately by stress treatment of the plants (cold or drought stress). For cold stress treatment, the plants were kept under the following controlled conditions: Drought stress was induced by gradual drying out under the following conditions: “day”: 14 hours with illumination at 26° C. “night”: 10 hours without illumination at 18° C. The duration of the respective stress phases was guided mainly by the state of the untreated, stressed control plants and thus varies from crop to crop. It was ended (by re-irrigating or transfer to a greenhouse with good growth conditions) as soon as irreversible damage is observed on the untreated, stressed control plants. In the case of dicotyledonous crops, for example oilseed rape and soya, the duration of the drought stress phase was between 3 and 5 days, in the case of monocotyledonous crops, for example wheat, barley or corn, between 6 and 10 days. The duration of the cold stress phase varied between 12 and 14 days. The end of the stress phase was followed by an approx. 5-7-day recovery phase, during which the plants were once again kept under good growth conditions in a greenhouse. In order to rule out any influence of the effects observed by any fungicidal action of the test compounds, it was additionally ensured that the tests proceed without fungal infection and without infection pressure. After the recovery phase had ended, the intensities of damage were rated visually compared to untreated, unstressed controls of the same age (in the case of drought stress) or the same growth stage (in the case of cold stress). The intensity of damage was first assessed as a percentage (100%=plants have died, 0%=like control plants). These values were then used to calculate the efficacy of the test compounds (=percentage reduction in the intensity of damage as a result of substance application) by the following formula: [formula] EF: efficacy (%) DVus: damage value of the untreated, stressed control DVts: damage value of the plants treated with test compound The tables below list mean values in each case from three results of the same test. Effects of selected compounds of the formula (I) under drought stress: TRZAS=Triticum aestivum

Zea mays (ZEAMX) = test system: Zea mays (ZEAMX)
Procedure: Seeds of monocotyledonous and dicotyledonous crop plants were placed in sandy loam in wood-fiber pots, covered with soil and cultivated in a greenhouse under good growth conditions. The test plants were treated at the early leaf stage (BBCH10-BBCH13). To ensure uniform water supply before commencement of stress, the potted plants were supplied with the maximum amount of water immediately beforehand by dam irrigation and, after application, transferred in plastic inserts in order to prevent subsequent, excessively rapid drying. The inventive compounds, formulated in the form of wettable powders (WP), wettable granules (WG), suspension concentrates (SC) or emulsion concentrates (EC), were sprayed onto the green parts of the plants as an aqueous suspension at an equivalent water application rate of 600 l/ha with addition of 0.2% wetting agent (agrotin). Substance application was followed immediately by stress treatment of the plants (cold or drought stress). For cold stress treatment, the plants were kept under the following controlled conditions: Drought stress was induced by gradual drying out under the following conditions: “day”: 14 hours with illumination at 26° C. “night”: 10 hours without illumination at 18° C. The duration of the respective stress phases was guided mainly by the state of the untreated, stressed control plants and thus varies from crop to crop. It was ended (by re-irrigating or transfer to a greenhouse with good growth conditions) as soon as irreversible damage is observed on the untreated, stressed control plants. In the case of dicotyledonous crops, for example oilseed rape and soya, the duration of the drought stress phase was between 3 and 5 days, in the case of monocotyledonous crops, for example wheat, barley or corn, between 6 and 10 days. The duration of the cold stress phase varied between 12 and 14 days. The end of the stress phase was followed by an approx. 5-7-day recovery phase, during which the plants were once again kept under good growth conditions in a greenhouse. In order to rule out any influence of the effects observed by any fungicidal action of the test compounds, it was additionally ensured that the tests proceed without fungal infection and without infection pressure. After the recovery phase had ended, the intensities of damage were rated visually compared to untreated, unstressed controls of the same age (in the case of drought stress) or the same growth stage (in the case of cold stress). The intensity of damage was first assessed as a percentage (100%=plants have died, 0%=like control plants). These values were then used to calculate the efficacy of the test compounds (=percentage reduction in the intensity of damage as a result of substance application) by the following formula: [formula] EF: efficacy (%) DVus: damage value of the untreated, stressed control DVts: damage value of the plants treated with test compound The tables below list mean values in each case from three results of the same test. Effects of selected compounds of the formula (I) under drought stress: ZEAMX=Zea mays

Hordeum vulgare (HORVS) = test system: Hordeum vulgare (HORVS)
Procedure: Seeds of monocotyledonous and dicotyledonous crop plants were placed in sandy loam in wood-fiber pots, covered with soil and cultivated in a greenhouse under good growth conditions. The test plants were treated at the early leaf stage (BBCH10-BBCH13). To ensure uniform water supply before commencement of stress, the potted plants were supplied with the maximum amount of water immediately beforehand by dam irrigation and, after application, transferred in plastic inserts in order to prevent subsequent, excessively rapid drying. The inventive compounds, formulated in the form of wettable powders (WP), wettable granules (WG), suspension concentrates (SC) or emulsion concentrates (EC), were sprayed onto the green parts of the plants as an aqueous suspension at an equivalent water application rate of 600 l/ha with addition of 0.2% wetting agent (agrotin). Substance application was followed immediately by stress treatment of the plants (cold or drought stress). For cold stress treatment, the plants were kept under the following controlled conditions: Drought stress was induced by gradual drying out under the following conditions: “day”: 14 hours with illumination at 26° C. “night”: 10 hours without illumination at 18° C. The duration of the respective stress phases was guided mainly by the state of the untreated, stressed control plants and thus varies from crop to crop. It was ended (by re-irrigating or transfer to a greenhouse with good growth conditions) as soon as irreversible damage is observed on the untreated, stressed control plants. In the case of dicotyledonous crops, for example oilseed rape and soya, the duration of the drought stress phase was between 3 and 5 days, in the case of monocotyledonous crops, for example wheat, barley or corn, between 6 and 10 days. The duration of the cold stress phase varied between 12 and 14 days. The end of the stress phase was followed by an approx. 5-7-day recovery phase, during which the plants were once again kept under good growth conditions in a greenhouse. In order to rule out any influence of the effects observed by any fungicidal action of the test compounds, it was additionally ensured that the tests proceed without fungal infection and without infection pressure. After the recovery phase had ended, the intensities of damage were rated visually compared to untreated, unstressed controls of the same age (in the case of drought stress) or the same growth stage (in the case of cold stress). The intensity of damage was first assessed as a percentage (100%=plants have died, 0%=like control plants). These values were then used to calculate the efficacy of the test compounds (=percentage reduction in the intensity of damage as a result of substance application) by the following formula: [formula] EF: efficacy (%) DVus: damage value of the untreated, stressed control DVts: damage value of the plants treated with test compound The tables below list mean values in each case from three results of the same test. Effects of selected compounds of the formula (I) under drought stress: HORVS=Hordeum vulgare

With `CCCCn1c(C(F)(F)F)nc2c(C(N)=O)cccc21` [1-69] the “EF (BRSNS), efficacy = percentage reduction in the intensity of damage” value (Brassica napus (BRSNS); 25 g/ha) was over 5% and the “EF (TRZAS), efficacy = percentage reduction in the intensity of damage” value ([1]; 25 g/ha) was over 5%.
With `C=CCCOC(F)(F)c1nc2c(C(N)=O)cccc2[nH]1` [1-89] the “EF (BRSNS), efficacy = percentage reduction in the intensity of damage” value (Brassica napus (BRSNS); 250 g/ha) was over 5% and the “EF (ZEAMX), efficacy = percentage reduction in the intensity of damage” value (Zea mays (ZEAMX); 250 g/ha) was over 5%.
With `COC(F)(F)c1nc2c(C(N)=O)cccc2[nH]1` [1-6, 2-[difluoro(methoxy)methyl]-1H-benzimidazole-4-carboxamide] the “EF (BRSNS), efficacy = percentage reduction in the intensity of damage” value (Brassica napus (BRSNS); 25 g/ha) was over 5%, the “EF (ZEAMX), efficacy = percentage reduction in the intensity of damage” value (Zea mays (ZEAMX); 25 g/ha) was over 5% and the “EF (TRZAS), efficacy = percentage reduction in the intensity of damage” value ([1]; 25 g/ha) was over 5%.
`NC(=O)c1cccc2[nH]c(C(F)(F)OCC3CC3)nc12` [1-84] was tested, and the “EF (ZEAMX), efficacy = percentage reduction in the intensity of damage” value (Zea mays (ZEAMX); 25 g/ha) was over 5%.
For `CCC(C)COC(F)(F)c1nc2c(C(N)=O)cccc2[nH]1` (stereo not drawn) [1-90], the “EF (ZEAMX), efficacy = percentage reduction in the intensity of damage” value (Zea mays (ZEAMX); 250 g/ha) was over 5% and the “EF (TRZAS), efficacy = percentage reduction in the intensity of damage” value ([1]; 250 g/ha) was over 5%.
With `COCCOC(F)(F)c1nc2c(C(N)=O)cccc2[nH]1` [1-52] the “EF (BRSNS), efficacy = percentage reduction in the intensity of damage” value (Brassica napus (BRSNS); 25 g/ha) was over 5%, the “EF (ZEAMX), efficacy = percentage reduction in the intensity of damage” value (Zea mays (ZEAMX); 25 g/ha) was over 5% and the “EF (TRZAS), efficacy = percentage reduction in the intensity of damage” value ([1]; 25 g/ha) was over 5%.
In the case of `CCCCS(CCCC)=NC(=O)c1cccc2[nH]c(C(F)(F)F)nc12` [1-5, N-(dibutyl-lambda^4-sulfanylidene)-2-(trifluoromethyl)-1H-benzimidazole-4-carboxamide], the “EF (BRSNS), efficacy = percentage reduction in the intensity of damage” value (Brassica napus (BRSNS); 25 g/ha) is reported as over 5%, the “EF (ZEAMX), efficacy = percentage reduction in the intensity of damage” value (Zea mays (ZEAMX); 50 g/ha) is reported as over 5% and the “EF (TRZAS), efficacy = percentage reduction in the intensity of damage” value ([1]; 250 g/ha) is reported as over 5%.
In the case of `NC(=O)c1cccc2[nH]c(C(F)(F)Cl)nc12` [1-1, 2-[chloro(difluoro)methyl]-1H-benzimidazole-4-carboxamide], the “EF (HORVS), efficacy = percentage reduction in the intensity of damage” value (Hordeum vulgare (HORVS); 100 g/ha) is reported as over 5%.
`Cn1c(C(F)(F)F)nc2c(C(N)=O)cccc21` [1-27] was tested, and the “EF (HORVS), efficacy = percentage reduction in the intensity of damage” value (Hordeum vulgare (HORVS); 100 g/ha) was over 5%.
`CC(C)NC(=O)c1cccc2[nH]c(C(F)(F)F)nc12` [1-21] was tested, and the “EF (HORVS), efficacy = percentage reduction in the intensity of damage” value (Hordeum vulgare (HORVS); 25 g/ha) was over 5%.
In the case of `NC(=O)c1cc(F)cc2[nH]c(C(F)C(F)(F)F)nc12` (stereo not drawn) [5-8], the “EF (BRSNS), efficacy = percentage reduction in the intensity of damage” value (Brassica napus (BRSNS); 250 g/ha) is reported as over 5% and the “EF (TRZAS), efficacy = percentage reduction in the intensity of damage” value ([1]; 25 g/ha) is reported as over 5%.
`NC(=O)c1cccc2[nH]c(C(F)C(F)(F)F)nc12` (stereo not drawn) [1-8] was tested, and the “EF (HORVS), efficacy = percentage reduction in the intensity of damage” value (Hordeum vulgare (HORVS); 50 g/ha) was over 5%, the “EF (BRSNS), efficacy = percentage reduction in the intensity of damage” value (Brassica napus (BRSNS); 50 g/ha) was over 5% and the “EF (ZEAMX), efficacy = percentage reduction in the intensity of damage” value (Zea mays (ZEAMX); 25 g/ha) was over 5%.
For `CCCCOC(F)(F)c1nc2c(C(N)=O)cccc2[nH]1` [1-50], the “EF (BRSNS), efficacy = percentage reduction in the intensity of damage” value (Brassica napus (BRSNS); 25 g/ha) was over 5%, the “EF (ZEAMX), efficacy = percentage reduction in the intensity of damage” value (Zea mays (ZEAMX); 250 g/ha) was over 5% and the “EF (TRZAS), efficacy = percentage reduction in the intensity of damage” value ([1]; 250 g/ha) was over 5%.
